In PubChem BioAssay (NCI):
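Method: 48-hour compound exposure of cells in 96-well plates, five concentrations, linear interpolation of endpoints. TGI is the concentration that stops growth completely.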

Test system: P388 leukemia
Assay: NCI tumour cell line growth inhibition, 48 h

SMILES	TGI
O=C(O)CCCc1ccc(N(CCCl)CCCl)cc1	135 µM
CC1(C)N=C(N)N=C(N)N1c1ccc(CCCCc2ccc(S(=O)(=O)F)cc2Cl)c(Cl)c1	6.36 µM
